Experimental data as given in a compilation of properties of binary mixtures (doi:10.1016/j.molliq.2019.111925).

Assay: xn = mol fraction of the nth substance listed
Conditions: 100 kPa

O + CC(=O)[O-].CC[n+]1ccn(C)c1
x2 = 0
Conditions | speed of sound [m/s]
293.15 K | 1485
298.15 K | 1499
303.15 K | 1511
333.15 K | 1551
343.15 K | 1554

CC(=O)[O-].CC[n+]1ccn(C)c1 + O
Conditions | electrical conductivity [S/m] | speed of sound [m/s]
293.15 K, x1 = 0.105 | – | 1942
293.15 K, x1 = 0.1988 | – | 1959
293.15 K, x1 = 0.2003 | 1.59 | –
293.15 K, x1 = 0.3952 | 0.833 | –
293.15 K, x1 = 0.4445 | – | 1852
293.15 K, x1 = 0.5602 | – | 1776
293.15 K, x1 = 0.5984 | 0.49 | –
293.15 K, x1 = 0.7375 | – | 1778
293.15 K, x1 = 0.8521 | – | 1762
293.15 K, x1 = 0.9481 | 0.228 | –
293.15 K, x2 = 0.0174 | – | 1753
298.15 K, x1 = 0.4445 | – | 1839
298.15 K, x1 = 0.5602 | – | 1764
298.15 K, x1 = 0.7375 | – | 1765
298.15 K, x1 = 0.8521 | – | 1749
298.15 K, x1 = 0.9481 | 0.301 | –
298.15 K, x1 = 1 | 0.299 | 1740
298.15 K, x2 = 0.0174 | – | 1740
303.15 K, x1 = 0.105 | – | 1917
303.15 K, x1 = 0.1988 | – | 1932
303.15 K, x1 = 0.3952 | 1.28 | –
303.15 K, x1 = 0.4445 | – | 1827
303.15 K, x1 = 0.5602 | – | 1753
303.15 K, x1 = 0.5984 | 0.776 | –
303.15 K, x1 = 0.7375 | – | 1753
303.15 K, x1 = 0.8521 | – | 1736
303.15 K, x1 = 0.9481 | 0.392 | –
303.15 K, x1 = 1 | 0.391 | 1727
303.15 K, x2 = 0.0174 | – | 1726
313.15 K, x1 = 0.1988 | – | 1904
313.15 K, x1 = 0.2003 | 3.32 | –
313.15 K, x1 = 0.3952 | 1.84 | –
313.15 K, x1 = 0.4445 | – | 1803
313.15 K, x1 = 0.5602 | – | 1729
313.15 K, x1 = 0.5984 | 1.16 | –
313.15 K, x1 = 0.7375 | – | 1729
313.15 K, x1 = 0.7987 | 0.819 | –
313.15 K, x1 = 0.8521 | – | 1712
313.15 K, x1 = 0.9481 | 0.627 | –
313.15 K, x1 = 1 | 0.625 | 1701
313.15 K, x2 = 0.0174 | – | 1701
323.15 K, x1 = 0.105 | – | 1864
323.15 K, x1 = 0.2003 | 4.45 | –
323.15 K, x1 = 0.3952 | 2.52 | –
323.15 K, x1 = 0.4445 | – | 1779
323.15 K, x1 = 0.5602 | – | 1707
323.15 K, x1 = 0.7375 | – | 1705
323.15 K, x1 = 0.7987 | 1.19 | –
323.15 K, x1 = 0.8521 | – | 1687
323.15 K, x1 = 0.9481 | 0.934 | –
323.15 K, x1 = 1 | 0.929 | 1676
323.15 K, x2 = 0.0174 | – | 1676
333.15 K, x1 = 0.105 | – | 1846
333.15 K, x1 = 0.1988 | – | 1848
333.15 K, x1 = 0.2003 | 5.75 | –
333.15 K, x1 = 0.3952 | 3.32 | –
333.15 K, x1 = 0.5602 | – | 1690
333.15 K, x1 = 0.5984 | 2.19 | –
333.15 K, x1 = 0.7375 | – | 1682
333.15 K, x1 = 0.7987 | 1.64 | –
333.15 K, x1 = 0.8521 | – | 1664
343.15 K, x1 = 0.105 | – | 1809
343.15 K, x1 = 0.4445 | – | 1731
343.15 K, x1 = 0.5602 | – | 1668
343.15 K, x1 = 0.7375 | – | 1659
343.15 K, x1 = 0.9481 | 1.76 | –
343.15 K, x2 = 0.0174 | – | 1629
353.15 K, x1 = 0.9481 | 2.28 | –
353.15 K, x1 = 1 | 2.28 | –
